Tests used:
[1] = test system: A549-ACE2 infected with SARS-CoV-2; assay: morphology score (similarity to uninfected cells); higher = more like uninfected cells; conditions: 24 h
[2] = test system: Vero E6; assay: relative viability EC50 (midpoint between 100% and the lowest measured viability); higher = less toxic; conditions: 72 h
[3] = test system: Calu-3; assay: as above; conditions: 72 h
[4] = test system: Caco-2; assay: as above; conditions: 72 h
[5] = test system: A549-ACE2 infected with SARS-CoV-2; assay: cell count relative to DMSO; higher = less toxic; conditions: 24 h
[6] = test system: A549-ACE2 infected with SARS-CoV-2; assay: SARS-CoV-2 infection rate relative to DMSO; higher = more infection; conditions: 24 h
[7] = test system: Vero E6; assay: cell viability relative to DMSO; higher = less toxic; conditions: 72 h
[8] = test system: Calu-3; assay: as above; conditions: 72 h
[9] = test system: HepG2; assay: as above; conditions: 72 h
[10] = test system: U2OS; assay: as above; conditions: 72 h
[11] = test system: Caco-2; assay: as above; conditions: 72 h
[12] = test system: A549-ACE2; assay: drug-induced phospholipidosis relative to tamoxifen; higher = more phospholipidosis
[13] = test system: Vero E6; assay: drug sensitivity score (DSS) for viability; higher = more toxic; extreme values may be limits of the assay; conditions: 72 h
[14] = test system: Calu-3; assay: as above; conditions: 72 h
[15] = test system: HepG2; assay: as above; conditions: 72 h
[16] = test system: U2OS; assay: as above; conditions: 72 h
[17] = test system: Caco-2; assay: as above; conditions: 72 h
[18] = test system: HepG2; assay: relative viability EC50 (midpoint between 100% and the lowest measured viability); higher = less toxic; conditions: 72 h
[19] = test system: U2OS; assay: as above; conditions: 72 h

## Nc1nc(N)c(N=O)c(OCC2CCCCC2)n1 [NU-6027]
[1]; 0.3 µM
  morphology score: -0.13
[1]; 3 µM
  morphology score: 0.59
[1]; 10 µM
  morphology score: 0.62
[1]; 30 µM
  morphology score: 0.46
[2]
  relative viability EC50: > 10 µM
[3]
  relative viability EC50: > 10 µM
[4]
  relative viability EC50: 3.17 µM
[5]; 0.3 µM
  cell count: 100%
[5]; 3 µM
  cell count: 103%
[5]; 10 µM
  cell count: 107%
[5]; 30 µM
  cell count: 100%
[6]; 0.3 µM
  SARS-CoV-2 infection rate: 104%
[6]; 3 µM
  SARS-CoV-2 infection rate: 68%
[6]; 10 µM
  SARS-CoV-2 infection rate: 52%
[6]; 30 µM
  SARS-CoV-2 infection rate: 41%
[7]; 1 nM
  cell viability: 96%
[7]; 10 nM
  cell viability: 105%
[7]; 100 nM
  cell viability: 99.8%
[7]; 1000 nM
  cell viability: 95%
[7]; 10000 nM
  cell viability: 89.7%
[8]; 1 nM
  cell viability: 101%
[8]; 10 nM
  cell viability: 117%
[8]; 100 nM
  cell viability: 106%
[8]; 1000 nM
  cell viability: 105%
[8]; 10000 nM
  cell viability: 81.4%
[9]; 1 nM
  cell viability: 87.7%
[9]; 10 nM
  cell viability: 92.7%
[9]; 100 nM
  cell viability: 96.4%
[9]; 1000 nM
  cell viability: 89.9%
[9]; 10000 nM
  cell viability: 58.4%
[10]; 1 nM
  cell viability: 104%
[10]; 10 nM
  cell viability: 101%
[10]; 100 nM
  cell viability: 104%
[10]; 1000 nM
  cell viability: 101%
[10]; 10000 nM
  cell viability: 70.7%
[11]; 1 nM
  cell viability: 100%
[11]; 10 nM
  cell viability: 97.5%
[11]; 100 nM
  cell viability: 96.6%
[11]; 1000 nM
  cell viability: 100%
[11]; 10000 nM
  cell viability: 46%
[12]; 0.3 µM, 24 h
  drug-induced phospholipidosis: 1.28%
[12]; 0.3 µM, 48 h
  drug-induced phospholipidosis: 2.37%
[12]; 0.3 µM, 72 h
  drug-induced phospholipidosis: 1.92%
[12]; 0.833333 µM, 24 h
  drug-induced phospholipidosis: -0.02%
[12]; 0.833333 µM, 48 h
  drug-induced phospholipidosis: -0.39%
[12]; 0.833333 µM, 72 h
  drug-induced phospholipidosis: -1.07%
[12]; 3.33333 µM, 24 h
  drug-induced phospholipidosis: 2.45%
[12]; 3.33333 µM, 48 h
  drug-induced phospholipidosis: -0.5%
[12]; 3.33333 µM, 72 h
  drug-induced phospholipidosis: -2.27%
[12]; 6.66667 µM, 24 h
  drug-induced phospholipidosis: 3.35%
[12]; 6.66667 µM, 48 h
  drug-induced phospholipidosis: -1.38%
[12]; 6.66667 µM, 72 h
  drug-induced phospholipidosis: -1.09%
[12]; 10 µM, 24 h
  drug-induced phospholipidosis: 2.35%
[12]; 10 µM, 48 h
  drug-induced phospholipidosis: 1.26%
[12]; 10 µM, 72 h
  drug-induced phospholipidosis: -1.29%
[12]; 30 µM, 24 h
  drug-induced phospholipidosis: 28.5%
[13]
  drug sensitivity score: 0
[14]
  drug sensitivity score: 0.3
[15]
  drug sensitivity score: 3.7
[16]
  drug sensitivity score: 1.2
[17]
  drug sensitivity score: 2.9

## CC(C)(C)c1ccc(C(O)CCCN2CCC(C(O)(c3ccccc3)c3ccccc3)CC2)cc1 (stereo unspecified) [terfenadine]
[2]
  relative viability EC50: > 10 µM
[3]
  relative viability EC50: > 10 µM
[18]
  relative viability EC50: > 10 µM
[19]
  relative viability EC50: > 10 µM
[4]
  relative viability EC50: > 10 µM
[7]; 1 nM
  cell viability: 107%
[7]; 10 nM
  cell viability: 97.3%
[7]; 100 nM
  cell viability: 109%
[7]; 1000 nM
  cell viability: 101%
[7]; 10000 nM
  cell viability: 100%
[8]; 1 nM
  cell viability: 97.6%
[8]; 10 nM
  cell viability: 115%
[8]; 100 nM
  cell viability: 97.3%
[8]; 1000 nM
  cell viability: 104%
[8]; 10000 nM
  cell viability: 106%
[9]; 1 nM
  cell viability: 108%
[9]; 10 nM
  cell viability: 117%
[9]; 100 nM
  cell viability: 103%
[9]; 1000 nM
  cell viability: 96.9%
[9]; 10000 nM
  cell viability: 99.8%
[10]; 1 nM
  cell viability: 98.1%
[10]; 10 nM
  cell viability: 101%
[10]; 100 nM
  cell viability: 96.5%
[10]; 1000 nM
  cell viability: 99.7%
[10]; 10000 nM
  cell viability: 97.8%
[11]; 1 nM
  cell viability: 77.3%
[11]; 10 nM
  cell viability: 100%
[11]; 100 nM
  cell viability: 76.3%
[11]; 1000 nM
  cell viability: 101%
[11]; 10000 nM
  cell viability: 80.2%
[13]
  drug sensitivity score: 0
[14]
  drug sensitivity score: 0
[15]
  drug sensitivity score: 0
[16]
  drug sensitivity score: 0
[17]
  drug sensitivity score: 2.4

## COc1cccc([C@H](O)C2CCN(CCc3ccc(F)cc3)CC2)c1OC [volinanserin]
[2]
  relative viability EC50: > 10 µM
[3]
  relative viability EC50: > 10 µM
[18]
  relative viability EC50: > 10 µM
[19]
  relative viability EC50: > 10 µM
[4]
  relative viability EC50: > 10 µM
[7]; 1 nM
  cell viability: 102%
[7]; 10 nM
  cell viability: 99.9%
[7]; 100 nM
  cell viability: 98.9%
[7]; 1000 nM
  cell viability: 101%
[7]; 10000 nM
  cell viability: 96.1%
[8]; 1 nM
  cell viability: 90.9%
[8]; 10 nM
  cell viability: 104%
[8]; 100 nM
  cell viability: 99.9%
[8]; 1000 nM
  cell viability: 101%
[8]; 10000 nM
  cell viability: 95.1%
[9]; 1 nM
  cell viability: 99.9%
[9]; 10 nM
  cell viability: 99.9%
[9]; 100 nM
  cell viability: 95.8%
[9]; 1000 nM
  cell viability: 101%
[9]; 10000 nM
  cell viability: 91.3%
[10]; 1 nM
  cell viability: 103%
[10]; 10 nM
  cell viability: 96.2%
[10]; 100 nM
  cell viability: 99.7%
[10]; 1000 nM
  cell viability: 98.6%
[10]; 10000 nM
  cell viability: 98.5%
[11]; 1 nM
  cell viability: 101%
[11]; 10 nM
  cell viability: 97.3%
[11]; 100 nM
  cell viability: 101%
[11]; 1000 nM
  cell viability: 90.8%
[11]; 10000 nM
  cell viability: 88.9%
[13]
  drug sensitivity score: 0
[14]
  drug sensitivity score: 0
[15]
  drug sensitivity score: 0
[16]
  drug sensitivity score: 0
[17]
  drug sensitivity score: 0.2
